Test results: patent publication US8071287B2, “Pharmaceutical and therapeutic applications relating to a type 9 adenylyl cyclase Polymorphism in asthma and reversible bronchial obstruction” (priority 2005, dated 2011)
Substitutions are numbered along the chain they refer to.

What was measured:
Met772 AC9 = target: T1, Met772 AC9 (Homo sapiens, UniProt O60503, I772M); experiment: Adenylyl cyclase activities in membranes of A431 cells transfected with Met772 AC9; format: biochemical; conditions: 10 μM albuterol; for stimulated adenylyl cyclase activities of Met772 compared to WT: no corticosteroid, 1.8 mM MnCl2 or 10 mM NaF; for albuterol stimulated adenylyl cyclase activities: Met772 cells, N=5
T1 construct: expressed in transfected cells
T1 sequence (O60503 1-1353 I772M): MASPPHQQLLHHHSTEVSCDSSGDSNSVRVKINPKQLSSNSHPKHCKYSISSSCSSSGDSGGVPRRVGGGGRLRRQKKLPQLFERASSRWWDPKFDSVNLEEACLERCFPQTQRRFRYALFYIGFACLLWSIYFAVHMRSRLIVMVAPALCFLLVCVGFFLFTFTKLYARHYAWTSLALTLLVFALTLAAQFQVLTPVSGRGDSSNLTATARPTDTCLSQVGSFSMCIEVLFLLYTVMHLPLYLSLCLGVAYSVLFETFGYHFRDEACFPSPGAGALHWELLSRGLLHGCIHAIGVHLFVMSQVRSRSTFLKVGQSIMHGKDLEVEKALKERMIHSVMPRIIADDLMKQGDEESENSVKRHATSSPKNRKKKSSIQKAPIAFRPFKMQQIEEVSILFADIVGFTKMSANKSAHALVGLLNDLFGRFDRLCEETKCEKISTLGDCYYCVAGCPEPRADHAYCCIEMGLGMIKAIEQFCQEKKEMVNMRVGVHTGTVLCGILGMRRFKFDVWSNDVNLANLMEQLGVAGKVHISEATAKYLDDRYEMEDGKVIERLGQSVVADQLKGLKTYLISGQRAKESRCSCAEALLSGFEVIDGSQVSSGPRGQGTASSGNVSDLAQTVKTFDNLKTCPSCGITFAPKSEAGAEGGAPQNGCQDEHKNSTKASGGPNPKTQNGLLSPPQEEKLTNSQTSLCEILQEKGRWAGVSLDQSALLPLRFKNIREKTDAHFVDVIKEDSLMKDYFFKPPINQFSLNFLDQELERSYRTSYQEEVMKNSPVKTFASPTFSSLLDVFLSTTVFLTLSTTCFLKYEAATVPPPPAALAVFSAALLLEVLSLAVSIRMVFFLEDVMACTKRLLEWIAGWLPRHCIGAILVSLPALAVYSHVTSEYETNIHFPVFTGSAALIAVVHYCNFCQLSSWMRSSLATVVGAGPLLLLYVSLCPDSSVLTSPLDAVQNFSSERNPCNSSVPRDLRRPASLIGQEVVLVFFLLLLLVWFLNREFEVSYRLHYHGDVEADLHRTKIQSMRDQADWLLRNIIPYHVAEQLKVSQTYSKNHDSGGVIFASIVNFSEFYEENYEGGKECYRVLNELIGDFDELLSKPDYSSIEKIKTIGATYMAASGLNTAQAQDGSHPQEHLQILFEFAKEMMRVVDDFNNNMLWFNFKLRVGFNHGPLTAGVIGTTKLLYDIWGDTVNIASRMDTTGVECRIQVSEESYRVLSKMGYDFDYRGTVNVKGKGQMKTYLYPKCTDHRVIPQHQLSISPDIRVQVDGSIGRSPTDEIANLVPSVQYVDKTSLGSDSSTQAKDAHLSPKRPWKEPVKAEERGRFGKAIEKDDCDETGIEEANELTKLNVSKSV
Text: (§1) The WT coding sequence for the human AC9 gene is considered that of GenBank accession number DQ005545. With the adenine of the initiator codon being considered nucleotide 1, a polymorphism consisting of an […] which results in […] (accession number DQ008441) was previously described in Small et al, Pharmacogenetics, 13, 535-541, supra. The cDNAs for […] (also referred to as WT) and […] coding regions were generated from human lymphocyte RNA, subcloned into pCNDA3, and transfections of A431 cells carried out as described. Selection of positive clones was carried out in media containing 400 μg/ml G418. Expression of AC9 was determined in individual clonal lines by Western blots (see below). A431 cells were grown in monolayers in Dulbecco's modified Eagle's medium with 4 mM […] 10% fetal bovine serum, 100 U/ml penicillin and 100 μg/ml streptomycin, at 37° in a 5% CO2 atmosphere. In some studies, cells at 90% confluency in the absence of serum were treated with 500 nM dexamethasone for 12 hours and then utilized as described below. […] M et al., “Beta1-adrenergic receptor polymorphisms confer differential function and predisposition to heart failure” Nat. Med., 9, 1300-1305 (2003). […] [^32P] cAMP was separated from […] by chromatography over alumina columns. The [^3H] cAMP standard included in the stop buffer accounted for individual column recovery.

WT (Ile772) AC9 = target: T2, WT (Ile772) AC9 (Homo sapiens, UniProt O60503); experiment: Adenylyl cyclase activities in membranes of A431 cells transfected with WT (Ile772) AC9; format: biochemical; conditions: for albuterol stimulated adenylyl cyclase activities: WT cells, 10 μM albuterol, N=5
T2 construct: expressed in transfected cells
T2 sequence (O60503 1-1353): T1 sequence (O60503 1-1353 I772M) with M772I
Text: as §1

asthmatic children = experiment: CAMP clinical cohort: bronchodilator response (FEV1) stratified by AC9 genotype; format: in vivo, human; conditions: for Bronchodilator response at baseline: at randomization
Text: The study cohort consisted of pediatric patients who participated in the Childhood Asthma Management Program (CAMP). The study was a multicenter, randomized, trial comparing regularly scheduled inhalation treatment with the corticosteroid budesonide, the putative mast-cell “stabilizer” nedocromil, and placebo. The study design has been previously published in “Long-term effects of budesonide or nedocromil in children with asthma” N. Engl. J. Med., 343, 1054-1063 (2000). […] Once per year a methacholine challenge was performed to ascertain bronchial hyperresponsiveness. The current study utilized archived DNA from patients who participated in the CAMP DNA Ancillary Study. Because of potential population stratification issues (the allele frequency of Met772 is ˜0.30 in Caucasians and ˜0.15 in African Americans) and the small number of African American children enrolled in CAMP (14%), the current study was confined to Caucasian children. […] The analysis was focused then, on 436 children, with follow-up through 48 months, the last time point in which nearly complete measures were obtained for the cohort. The subjects' parents provided informed consent, and the study was approved by the Institutional Review Boards of each participating center.
The AC9 SNP at nucleotide 2316 was genotyped via a SEQUENOM MassARRAY MALDI-TOF mass spectrometer (Sequenom, San Diego, Calif.) for analysis of unlabeled single-base extension minisequencing reactions with a semiautomated primer design program (Spectro[…], Sequenom). […] To assess for possible population stratification, a random panel of 49 SNPs across the genome (“stratification SNPs”), obtained through the SNP Consortium (TSC) database was also genotyped. SNPs were chosen that are widely distributed throughout the genome and exclude promoters, genomic UTRs, exons, and introns of known genes.
Bronchodilator response is defined as FEV1 after bronchodilator minus FEV1 before bronchodilator divided by FEV1 before bronchodilator times 100 [(Post-FEV1−Pre-FEV1)/(Pre-FEV1)×100]. Longitudinal models of bronchodilator response, using repeated measures modeling with time as a linear effect and an unstructured covariance matrix, are used. These models evaluate change in bronchodilator response beginning at the 2 month follow-up visit, allowing for evaluation of change based on treatment type. Univariate and multivariable analyses adjusting for age, sex, and bronchodilator response at baseline are performed, under the assumption of a dominant model. To test for interaction between steroid treatment and Ile772Met genotypic status, treatment specific strata was evaluated and included interaction terms in the models. A “mean bronchodilator” response is also derived by taking all of the observations over the 4 years and dividing by the number of visits. This value was used as the primary outcome in the haplotypic assessment of interactions between the β2AR locus and the AC9 polymorphism.

β2AR = experiment: 125I-CYP radioligand binding for endogenous β2AR density in transfected A431 cells; format: cell-based
Procedure: The cDNAs for Ile772 (also referred to as WT) and Met772 coding regions were generated from human lymphocyte RNA, subcloned into pCNDA3, and transfections of A431 cells carried out as described. Selection of positive clones was carried out in media containing 400 μg/ml G418. Expression of AC9 was determined in individual clonal lines by Western blots (see below). A431 cells were grown in monolayers in Dulbecco's modified Eagle's medium with 4 mM L-glutamate 10% fetal bovine serum, 100 U/ml penicillin and 100 μg/ml streptomycin, at 37° in a 5% CO2 atmosphere. In some studies, cells at 90% confluency in the absence of serum were treated with 500 nM dexamethasone for 12 hours and then utilized as described below.
Transfected A431 cells were washed three times with phosphate-buffered saline (PBS), detached by scraping in 5 mM Tris, pH 7.4, 2 mM ethylenediaminetetracetic acid (EDTA) buffer, and centrifuged at 30,000 g for 10 min. […] Nonspecific binding was determined with 1 μM propranolol. […] AC9 expression in these transfected cell lines was assessed by quantitative immunoblotting so as to select lines expressing Ile772 or Met772 at the same levels for pharmacologic studies, and to ascertain if corticosteroid treatment altered expression. […] Relative levels of AC9 expression were subsequently determined using ScanAnalysis software (BioSoft, Cambridge, UK).

[1] = after dexamethasone treatment (500 nM)

[Cl][Mn][Cl] [MnCl2]
stimulated adenylyl cyclase activities of Met772 compared to WT (Met772 AC9): decreased compared to WT

CC(C)(C)NCC(O)c1ccc(O)c(CO)c1 (stereo not drawn) [albuterol]
albuterol stimulated adenylyl cyclase activities (Met772 AC9; [1]): 43 ± 3.4 pmol/min/mg | albuterol stimulated adenylyl cyclase activities (Met772 AC9; before dexamethasone treatment): 24 ± 1.3 pmol/min/mg | stimulated adenylyl cyclase activities of Met772 compared to WT (Met772 AC9): not different between the lines | albuterol stimulated adenylyl cyclase activities (WT (Ile772) AC9; [1]): 33 ± 2.5 pmol/min/mg | albuterol stimulated adenylyl cyclase activities (WT (Ile772) AC9; before dexamethasone treatment): 27 ± 2.1 pmol/min/mg | increase of albuterol-stimulated adenylyl cyclase response (WT (Ile772) AC9; cells expressing Ile772 cultured in the presence of glucocorticoid): ~20% | Bronchodilator response at baseline (asthmatic children; Met772 carriers): 11.17 ± 11.24 | average bronchodilator response (±SE), univariate (asthmatic children; Overall Cohort, Met772, 4 year follow-up): 9.23 ± 0.34% | average bronchodilator response (±SE), multivariate (asthmatic children; Overall Cohort, Met772, adjusted for age, gender, inhaled steroid usage, baseline response, time): 6.17 ± 0.92% | average bronchodilator response (±SE), univariate (asthmatic children; Overall Cohort, Wildtype, 4 year follow-up): 9.41 ± 0.48% | average bronchodilator response (±SE), univariate (asthmatic children; Placebo Group (no inhaled steroid), Met772): 9.94 ± 0.61% | average bronchodilator response (±SE), univariate (asthmatic children; Placebo Group (no inhaled steroid), Wildtype): 10.92 ± 0.79% | average bronchodilator response (±SE), univariate (asthmatic children; Steroid Group (inhaled budesonide), Met772): 8.72±0.54% | average bronchodilator response (±SE), multivariate (asthmatic children; Steroid Group (inhaled budesonide), Met772, adjusted): 5.78 ± 1.49% | average bronchodilator response (±SE), univariate (asthmatic children; Steroid Group (inhaled budesonide), Wildtype): 6.76±0.69% | Bronchodilator response at baseline (asthmatic children; WT patients): 10.32 ± 9.18

[F-].[Na+] [NaF]
stimulated adenylyl cyclase activities of Met772 compared to WT (Met772 AC9): decreased compared to WT

CCCC1O[C@@H]2C[C@H]3[C@@H]4CCC5=CC(=O)C=C[C@]5(C)[C@H]4[C@@H](O)C[C@]3(C)[C@]2(C(=O)CO)O1 (stereo partly drawn) [budesonide]
increase in bronchodilation response of Met772 carriers compared to wild type (asthmatic children; on inhaled budesonide, univariate): ~2 percentage point

C[C@@H]1C[C@H]2[C@@H]3CCC4=CC(=O)C=C[C@]4(C)[C@@]3(F)[C@@H](O)C[C@]2(C)[C@@]1(O)C(=O)CO [dexamethasone]
β2AR expression (β2AR; Met772 AC9 line after corticosteroid (dexamethasone) exposure, untreated 66±8.9): 109 ± 9.0 fmol/mg | β2AR expression (β2AR; WT AC9 line after corticosteroid (dexamethasone) exposure, untreated 51±6.2): 103 ± 7.8 fmol/mg
